According to US6737383B1, “Herbicidal oxadiazolidines” (priority 1999, dated 2004):

Legend:
[1] = tested on: sugar beet; test: Test B pre/postemergence sugar beet; type: in vivo, Beta vulgaris
Procedure, shortened: (§1)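 Test chemicals in a non-phytotoxic solvent mixture with surfactant were sprayed preemergence onto planted seeds and postemergence onto plants 2 to 18 cm tall (1- to 4-leaf stage). After twelve to sixteen days in a greenhouse, injury was visually rated against untreated controls from 0 (no effect) to 10 (complete control).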

[2] = tested on: crabgrass; test: Test B pre/postemergence crabgrass; type: in vivo, Digitaria sanguinalis
Procedure, shortened: as §1

[3] = tested on: surinam grass; test: Test B pre/postemergence surinam grass; type: in vivo, Brachiaria decumbens
Procedure, shortened: as §1

[4] = tested on: corn; test: Test B pre/postemergence corn; type: in vivo, Zea mays
Procedure, shortened: as §1

[5] = tested on: purple nutsedge; test: Test B pre/postemergence purple nutsedge; type: in vivo, Cyperus rotundus
Procedure, shortened: as §1

[6] = tested on: wild oat; test: Test B pre/postemergence wild oat; type: in vivo, Avena fatua
Procedure, shortened: as §1

[7] = tested on: cocklebur; test: Test B pre/postemergence cocklebur; type: in vivo, Xanthium strumarium
Procedure, shortened: as §1

[8] = tested on: rape; test: Test B pre/postemergence rape; type: in vivo, Brassica napus
Procedure, shortened: as §1

[9] = tested on: soybean; test: Test B pre/postemergence soybean; type: in vivo, Glycine max
Procedure, shortened: as §1

[10] = tested on: giant foxtail; test: Test B pre/postemergence giant foxtail; type: in vivo, Setaria faberii
Procedure, shortened: as §1

[11] = tested on: pigweed; test: Test B pre/postemergence pigweed; type: in vivo, Amaranthus retroflexus
Procedure, shortened: as §1

[12] = tested on: bedstraw; test: Test B pre/postemergence bedstraw; type: in vivo, Galium aparine
Procedure, shortened: as §1

[13] = tested on: blackgrass; test: Test B pre/postemergence blackgrass; type: in vivo, Alopecurus myosuroides
Procedure, shortened: as §1

[14] = tested on: wheat; test: Test B pre/postemergence wheat; type: in vivo, Triticum aestivum
Procedure, shortened: as §1

[15] = tested on: morningglory; test: Test B pre/postemergence morningglory; type: in vivo, Ipomoea hederacea
Procedure, shortened: as §1

[16] = tested on: velvetleaf; test: Test B pre/postemergence velvetleaf; type: in vivo, Abutilon theophrasti
Procedure, shortened: as §1

[17] = Preemergence, Rate 62 g/ha, scale of 0 to 10 where 0 is no effect and 10 is complete control
[18] = Preemergence, Rate 250 g/ha, scale of 0 to 10 where 0 is no effect and 10 is complete control
[19] = Preemergence, Rate 500 g/ha, scale of 0 to 10 where 0 is no effect and 10 is complete control
[20] = Rate 125 g/ha, Preemergence, scale of 0 to 10 where 0 is no effect and 10 is complete control
[21] = Rate 500 g/ha, Postemergence, scale 0 to 10, 0 no effect, 10 complete control
[22] = Rate 62 g/ha, Postemergence, scale of 0 to 10 where 0 is no effect and 10 is complete control
[23] = Rate 125 g/ha, Postemergence, scale 0 to 10

COC(=O)C=CCn1c(=O)on(C(=O)N(c2ccc(F)cc2)C(C)C)c1=O [Compound 263]
Sugarbeets plant response rating [1, 17]: 0 | Sugarbeets plant response rating [1, 18]: 0 | Plant response rating, Sugarbeets [1, 19]: 0 | Sugarbeets plant response rating [1, 20]: 0 | Sugarbeets plant response rating [1, 21]: 0 | Crabgrass plant response rating [2, 17]: 0 | Crabgrass plant response rating [2, 18]: 0 | Plant response rating, Crabgrass [2, 19]: 2 | Crabgrass plant response rating [2, 20]: 0 | Plant response rating (0 to 10; 0 is no effect, 10 is complete control), Crabgrass ([2]; Rate 250 g/ha, Postemergence): 0 | Crabgrass plant response rating [2, 21]: 2 | B. signalgrass plant response rating [3, 17]: 0 | B. signalgrass plant response rating [3, 18]: 0 | Plant response rating, B. signalgrass [3, 19]: 0 | B. signalgrass plant response rating [3, 22]: 0 | B. signalgrass plant response rating ([3]; Rate 125 g/ha, Postemergence, scale 0 (no effect) to 10 (complete control)): 0 | B. signalgrass plant response rating [3, 20]: 0 | Plant response rating (0 to 10; 0 is no effect, 10 is complete control), B. signalgrass ([3]; Rate 250 g/ha, Postemergence): 0 | B. signalgrass plant response rating [3, 21]: 0 | Corn plant response rating [4, 17]: 0 | Corn plant response rating [4, 18]: 0 | Plant response rating, Corn [4, 19]: 0 | Corn plant response rating [4, 22]: 0 | Corn plant response rating [4, 23]: 0 | Corn plant response rating [4, 20]: 0 | Plant response rating (0 to 10; 0 is no effect, 10 is complete control), Corn ([4]; Rate 250 g/ha, Postemergence): 0 | Corn plant response rating [4, 21]: 0 | Nutsedge plant response rating [5, 17]: 0 | Nutsedge plant response rating [5, 18]: 0 | Plant response rating, Nutsedge [5, 19]: 0 | Nutsedge plant response rating [5, 20]: 0 | Plant response rating (0 to 10; 0 is no effect, 10 is complete control), Nutsedge ([5]; Rate 250 g/ha, Postemergence): 0 | Nutsedge plant response rating [5, 21]: 0 | Wild oats plant response rating [6, 17]: 0 | Wild oats plant response rating [6, 18]: 0 | Plant response rating, Wild oats [6, 19]: 0 | Wild oats plant response rating [6, 20]: 0 | Wild oats plant response rating [6, 21]: 0 | Cocklebur plant response rating [7, 17]: 0 | Cocklebur plant response rating [7, 18]: 0 | Cocklebur plant response rating [7, 22]: 0 | Cocklebur plant response rating [7, 23]: 0 | Cocklebur plant response rating [7, 20]: 0 | Plant response rating (0 to 10; 0 is no effect, 10 is complete control), Cocklebur ([7]; Rate 250 g/ha, Postemergence): 0 | Cocklebur plant response rating [7, 21]: 0 | Rape plant response rating [8, 17]: 0 | Rape plant response rating [8, 18]: 0 | Plant response rating, Rape [8, 19]: 0 | Rape plant response rating [8, 20]: 0 | Plant response rating (0 to 10; 0 is no effect, 10 is complete control), Rape ([8]; Rate 250 g/ha, Postemergence): 0 | Rape plant response rating [8, 21]: 0 | Soybean plant response rating [9, 17]: 0 | Soybean plant response rating [9, 18]: 0 | Plant response rating, Soybean [9, 19]: 0 | Soybean plant response rating [9, 20]: 0 | Soybean plant response rating [9, 21]: 1 | Giant foxtail plant response rating [10, 17]: 2 | Giant foxtail plant response rating [10, 18]: 9 | Plant response rating, Giant foxtail [10, 19]: 9 | Giant foxtail plant response rating [10, 20]: 9 | Plant response rating (0 to 10; 0 is no effect, 10 is complete control), Giant foxtail ([10]; Rate 250 g/ha, Postemergence): 0 | Giant foxtail plant response rating [10, 21]: 3 | Redroot pigweed plant response rating [11, 17]: 0 | Redroot pigweed plant response rating [11, 18]: 0 | Plant response rating, Redroot pigweed [11, 19]: 0 | Redroot pigweed plant response rating [11, 20]: 0 | Plant response rating (0 to 10; 0 is no effect, 10 is complete control), Redroot pigweed ([11]; Rate 250 g/ha, Postemergence): 0 | Redroot pigweed plant response rating [11, 21]: 0 | Bedstraw plant response rating [12, 17]: 0 | Bedstraw plant response rating [12, 18]: 0 | Plant response rating, Bedstraw [12, 19]: 0 | Bedstraw plant response rating [12, 22]: 0 | Bedstraw plant response rating [12, 23]: 0 | Bedstraw plant response rating [12, 20]: 0 | Blackgrass plant response rating [13, 17]: 0 | Blackgrass plant response rating [13, 18]: 0 | Plant response rating, Blackgrass [13, 19]: 0 | Blackgrass plant response rating [13, 22]: 0 | Blackgrass plant response rating [13, 23]: 0 | Blackgrass plant response rating [13, 20]: 0 | Plant response rating (0 to 10; 0 is no effect, 10 is complete control), Blackgrass ([13]; Rate 250 g/ha, Postemergence): 3 | Blackgrass plant response rating [13, 21]: 5 | Wheat plant response rating [14, 17]: 0 | Wheat plant response rating [14, 18]: 0 | Plant response rating, Wheat [14, 19]: 0 | Wheat plant response rating [14, 20]: 0 | Wheat plant response rating [14, 21]: 2 | Morningglory plant response rating [15, 17]: 0 | Morningglory plant response rating [15, 18]: 0 | Plant response rating, Morningglory [15, 19]: 0 | Morningglory plant response rating [15, 20]: 0 | Plant response rating (0 to 10; 0 is no effect, 10 is complete control), Morningglory ([15]; Rate 250 g/ha, Postemergence): 4 | Morningglory plant response rating [15, 21]: 7 | Velvetleaf plant response rating [16, 17]: 0 | Velvetleaf plant response rating [16, 18]: 0 | Plant response rating, Velvetleaf [16, 19]: 3 | Velvetleaf plant response rating [16, 20]: 0 | Velvetleaf plant response rating [16, 21]: 2
